# Measured values published in patent US11535621B2, “Heterobicyclic amides as inhibitors of CD38” (Ribon Therapeutics, Inc., priority 2019, dated 2022).
# Target: Human CD38 (Homo sapiens (Human), UniProt P28907)
# Experiment: CD38 enzyme assay
# Format: biochemical
# Conditions: 2 nM CD38, NAD+ substrate, absorbance at 405 nm
# Summary of the method: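 IC50 values come from fitting % inhibition against compound concentration with a 4-parameter logistic, or a 3-parameter fit with top/bottom fixed at 100/0 or Hill at 1. Inhibition is scaled between DMSO wells and positive-control wells treated with a quinolinone CD38 inhibitor.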
# Sequence of Human CD38 (P28907 whole entry): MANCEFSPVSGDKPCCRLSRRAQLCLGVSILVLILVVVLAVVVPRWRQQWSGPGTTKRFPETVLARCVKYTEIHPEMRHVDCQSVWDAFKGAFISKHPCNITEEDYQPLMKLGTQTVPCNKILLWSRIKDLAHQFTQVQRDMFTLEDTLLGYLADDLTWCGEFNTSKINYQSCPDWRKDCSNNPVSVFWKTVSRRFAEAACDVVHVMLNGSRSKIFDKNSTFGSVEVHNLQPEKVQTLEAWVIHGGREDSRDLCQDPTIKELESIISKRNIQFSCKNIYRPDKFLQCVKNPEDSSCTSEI
row,IC50 [nM],SMILES
1,< 10,O=C(Nc1ccncn1)c1nc(-n2ccnc2)nc2cc[nH]c12 [Example 150]
2,< 10,CN(C)CCOc1ccc(NC(=O)c2nc(-n3ccnc3)nc3ccsc23)cn1 [Example 151]
3,< 10,CN1CCN(c2ccc(NC(=O)c3nc(-n4ccnc4)nc4cc[nH]c34)cn2)CC1 [Example 154]
4,< 10,O=C(Nc1cnc(OCCN2CCOCC2)c(Cl)c1)c1nc(-n2ccnc2)nc2cc[nH]c12 [Example 156]
5,10 to 100,O=C(Nc1ccc(N2CCC(N3CCOCC3)CC2)nc1)c1nc(-n2ccnc2)nc2cc[nH]c12 [Example 158]
6,< 10,O=C(NC1CCC(F)(F)CC1)c1nc(-n2ccnc2)nc2cn[nH]c12 [Example 159]
7,10 to 100,O=C(N[C@H]1CC[C@H](C(F)(F)F)CC1)c1nc(-n2ccnc2)nc2cn[nH]c12 [Example 160]
8,10 to 100,O=C(N[C@H]1CC[C@@H](C(F)(F)F)CC1)c1nc(-n2ccnc2)nc2cn[nH]c12 [Example 161]
9,10 to 100,COCCN1CCc2ccc(NC(=O)c3nc(-n4ccnc4)nc4cc[nH]c34)cc2C1 [Example 163]
10,10 to 100,O=C(NC1(c2ccccc2)CC1)c1nc(-n2ccnc2)nc2cc[nH]c12 [Example 164]
11,10 to 100,O=C(N[C@H]1CC[C@H](OC(F)(F)F)CC1)c1nc(-n2ccnc2)nc2cc[nH]c12 [Example 167]
12,10 to 100,O=C(N[C@H]1CC[C@H](F)CC1)c1nc(-n2ccnc2)nc2cc[nH]c12 [Example 168]
13,10 to 100,CNC(=O)[C@H]1CC[C@H](NC(=O)c2nc(-n3ccnc3)nc3cc[nH]c23)CC1 [Example 170]
14,10 to 100,CC(=O)N1CC2CC1CC2NC(=O)c1nc(-n2ccnc2)nc2cc[nH]c12 (centres unmarked) [Example 172]
15,< 10,O=C(N[C@H]1CC[C@H](CO)CC1)c1nc(-n2ccnc2)nc2cc[nH]c12 [Example 174]
16,< 10,C[C@]1(O)CC[C@@H](NC(=O)c2nc(-n3ccnc3)nc3cc[nH]c23)CC1 [Example 175]
17,10 to 100,C[C@]1(O)CC[C@H](NC(=O)c2nc(-n3ccnc3)nc3cc[nH]c23)CC1 [Example 176]
18,< 10,O=C(N[C@H]1CC[C@H](O)CC1)c1nc(-n2ccnc2)nc2cc[nH]c12 [Example 177]
19,10 to 100,COCCN1CCc2cc(NC(=O)c3nc(-n4ccnc4)nc4cc[nH]c34)ccc2C1 [Example 179]
20,10 to 100,O=C(N[C@H]1CC[C@H](NCCC(F)F)CC1)c1nc(-n2ccnc2)nc2cc[nH]c12 [Example 180]
21,100 to 1000,O=C(N[C@H]1CC[C@@H](NCCC(F)F)CC1)c1nc(-n2ccnc2)nc2cc[nH]c12 [Example 181]
22,< 10,CO[C@H]1CC[C@H](NC(=O)c2nc(-n3ccnc3)nc3cn[nH]c23)CC1 [Example 183]
23,< 10,Cc1cc2nc(-n3ccnc3)nc(C(=O)N[C@H]3CC[C@H](C(C)(C)O)CC3)c2[nH]1 [Example 184]
24,10 to 100,COC(C)(C)[C@H]1CC[C@H](NC(=O)c2nc(-n3ccnc3)nc3cc[nH]c23)CC1 [Example 187]
25,100 to 1000,"O=C(N[C@H]1CC[C@@H](NCCC(F)(F)F)CC1)c1nc(-n2ccnc2)cc2cn[nH]c12 [Example 188, 5-(1H-imidazol-1-yl)-N-((1s,4s)-4-((3,3,3-trifluoropropyl)amino)cyclohexyl)-1H-pyrazolo[3,4-c]pyridine-7-carboxamide]"
26,10 to 100,"O=C(N[C@H]1CC[C@H](NCC(F)(F)F)CC1)c1nc(-n2ccnc2)nc2cn[nH]c12 [Example 191, 5-(1H-imidazol-1-yl)-N-((1r,4r)-4-((2,2,2-trifluoroethyl)amino)cyclohexyl)-1H-pyrazolo[4,3-d]pyrimidine-7-carboxamide]"
27,10 to 100,"CNC(=O)C[C@H]1CC[C@H](NC(=O)c2nc(-n3ccnc3)cc3cn[nH]c23)CC1 [Example 199, 5-(1H-imidazol-1-yl)-N-((1r,4r)-4-(2-(methylamino)-2-oxoethyl)cyclohexyl)-1H-pyrazolo[3,4-c]pyridine-7-carboxamide]"
28,< 10,"O=C(N[C@H]1CC[C@H](CCO)CC1)c1nc(-n2ccnc2)nc2cc[nH]c12 [Example 200, N-((1r,4r)-4-(2-hydroxyethyl)cyclohexyl)-2-(1H-imidazol-1-yl)-5H-pyrrolo[3,2-d]pyrimidine-4-carboxamide]"
29,10 to 100,"CN(C)C(=O)CO[C@H]1CC[C@H](NC(=O)c2nc(-n3ccnc3)nc3cn[nH]c23)CC1 [Example 201, N-((1r,4r)-4-(2-(dimethylamino)-2-oxoethoxy)cyclohexyl)-5-(1H-imidazol-1-yl)-1H-pyrazolo[4,3-d]pyrimidine-7-carboxamide]"

# More lines, now with the values behind:
row,SMILES,IC50 [nM]
1,N#C[C@H]1CC[C@H](NC(=O)c2nc(-n3ccnc3)nc3cc[nH]c23)CC1 [Example 148],< 10
2,O=C(NC1CCC(F)(F)CC1)c1nc(-n2ccnc2)nc2ccsc12 [Example 149],< 10
3,O=C(NC1CCC(F)(F)CC1)c1nc(-n2ccnc2)nc2nc[nH]c12 [Example 152],10 to 100
4,O=C(Nc1cncnc1)c1nc(-n2ccnc2)nc2cc[nH]c12 [Example 153],< 10
5,O=C(N[C@H]1CC[C@H](N2CCOCC2)CC1)c1nc(-n2ccnc2)nc2cc[nH]c12 [Example 155],10 to 100
6,O=C(NCCC1CCC(F)(F)CC1)c1nc(-n2ccnc2)nc2cc[nH]c12 [Example 157],10 to 100
7,O=C(Nc1ccon1)c1nc(-n2ccnc2)nc2cc[nH]c12 [Example 162],< 10
8,COCCOc1ncc(NC(=O)c2nc(-n3ccnc3)nc3cc[nH]c23)cn1 [Example 165],10 to 100
9,N#C[C@H]1CC[C@H](CNC(=O)c2nc(-n3ccnc3)nc3cc[nH]c23)CC1 [Example 166],10 to 100
10,O=C(N[C@H]1CC[C@@H](N2CCOCC2)CC1)c1nc(-n2ccnc2)nc2cc[nH]c12 [Example 169],100 to 1000
11,O=C(N[C@H]1CC[C@H](C(F)(F)F)CC1)c1nc(-n2ccnc2)cc2cn[nH]c12 [Example 171],< 10
12,Cc1cc2nc(-n3ccnc3)nc(C(=O)NC3CCC(F)(F)CC3)c2[nH]1 [Example 173],< 10
13,O=C(N[C@H]1CC[C@H](N2CCCS2(=O)=O)CC1)c1nc(-n2ccnc2)nc2cc[nH]c12 [Example 178],10 to 100
14,"CC(C)(O)[C@H]1CC[C@H](NC(=O)c2nc(-n3ccnc3)nc3cn[nH]c23)CC1 [Example 182, N-((1r,4r)-4-(2-hydroxypropan-2-yl)cyclohexyl)-5-(1H-imidazol-1-yl)-1H-pyrazolo[4,3-d]pyrimidine-7-carboxamide]",< 10
15,N#CC[C@H]1CC[C@H](NC(=O)c2nc(-n3ccnc3)nc3cc[nH]c23)CC1 [Example 185],< 10
16,O=C(N[C@H]1CC[C@@H](O)CC1)c1nc(-n2ccnc2)nc2cc[nH]c12 [Example 186],10 to 100
17,"O=C(N[C@H]1CC[C@H](NCCC(F)(F)F)CC1)c1nc(-n2ccnc2)cc2cn[nH]c12 [Example 189, 5-(1H-imidazol-1-yl)-N-((1r,4r)-4-((3,3,3-trifluoropropyl)amino)cyclohexyl)-1H-pyrazolo[3,4-c]pyridine-7-carboxamide]",10 to 100
18,"CN(C)CC#Cc1ccc(NC(=O)c2nc(-n3ccnc3)nc3cc[nH]c23)cn1 [Example 190, N-(6-(3-(dimethylamino)prop-1-yn-1-yl)pyridin-3-yl)-2-(1H-imidazol-1-yl)-5H-pyrrolo[3,2-d]pyrimidine-4-carboxamide]",< 10
19,"C[C@H](O)[C@H]1CC[C@H](NC(=O)c2nc(-n3ccnc3)cc3cn[nH]c23)CC1 [Example 192a, N-((1S,4r)-4-((S)-1-hydroxyethyl)cyclohexyl)-5-(1H-imidazol-1-yl)-1H-pyrazolo[3,4-c]pyridine-7-carboxamide]",< 10
20,"C[C@@H](O)[C@H]1CC[C@H](NC(=O)c2nc(-n3ccnc3)cc3cn[nH]c23)CC1 [Example 192b, N-((1R,4r)-4-((R)-1-hydroxyethyl)cyclohexyl)-5-(1H-imidazol-1-yl)-1H-pyrazolo[3,4-c]pyridine-7-carboxamide]",< 10
21,"CC(F)(F)CN[C@H]1CC[C@H](NC(=O)c2nc(-n3ccnc3)cc3cn[nH]c23)CC1 [Example 193, N-((1r,4r)-4-((2,2-difluoropropyl)amino)cyclohexyl)-5-(1H-imidazol-1-yl)-1H-pyrazolo[3,4-c]pyridine-7-carboxamide]",10 to 100
22,"CC(F)(F)CN[C@H]1CC[C@@H](NC(=O)c2nc(-n3ccnc3)cc3cn[nH]c23)CC1 [Example 194, N-((1s,4s)-4-((2,2-difluoropropyl)amino)cyclohexyl)-5-(1H-imidazol-1-yl)-1H-pyrazolo[3,4-c]pyridine-7-carboxamide]",100 to 1000
23,"O=C(N[C@H]1CC[C@H](NCC(F)F)CC1)c1nc(-n2ccnc2)cc2cn[nH]c12 [Example 195, N-((1r,4r)-4-((2,2-difluoroethyl)amino)cyclohexyl)-5-(1H-imidazol-1-yl)-1H-pyrazolo[3,4-c]pyridine-7-carboxamide]",10 to 100
24,"COCCO[C@H]1CC[C@H](NC(=O)c2nc(-n3ccnc3)cc3cn(C)nc23)CC1 [Example 196, 5-(1H-imidazol-1-yl)-N-((1r,4r)-4-(2-methoxyethoxy)cyclohexyl)-2-methyl-2H-pyrazolo[3,4-c]pyridine-7-carboxamide]",10 to 100
25,"COCCO[C@H]1CC[C@H](NC(=O)c2nc(-n3ccnc3)cc3cnn(C)c23)CC1 [Example 197, 5-(1H-imidazol-1-yl)-N-((1r,4r)-4-(2-methoxyethoxy)cyclohexyl)-1-methyl-1H-pyrazolo[3,4-c]pyridine-7-carboxamide]",10 to 100
26,"COCCO[C@H]1CC[C@H](NC(=O)c2nc(-n3ccnc3)cc3ccsc23)CC1 [Example 198, 5-(1H-imidazol-1-yl)-N-((1r,4r)-4-(2-methoxyethoxy)cyclohexyl)thieno[2,3-c]pyridine-7-carboxamide]",10 to 100
27,"CN(C)C(=O)CO[C@H]1CC[C@H](NC(=O)c2nc(-n3ccnc3)cc3cn[nH]c23)CC1 [Example 202, N-((1r,4r)-4-(2-(dimethylamino)-2-oxoethoxy)cyclohexyl)-5-(1H-imidazol-1-yl)-1H-pyrazolo[3,4-c]pyridine-7-carboxamide]",10 to 100
